Experiment [1] addresses T1, PTPN2 (Homo sapiens (Human), UniProt P17706). In words: PhosphoSens assay (PTPN2 BCHEM). Type of experiment: biochemical. The conditions noted are these: substrate AQT0264 20 μM, PTPN2 150 pM. The procedure:
A PhosphoSens® kinase assay was performed as described by the vendor (AssayQuant Technologies, Marlborough, MA). Briefly, 1000× solutions of compounds were prepared in DMSO via serial dilution of the 10 mM DMSO stocks using 3-fold intervals in a 384-well reagent plate. 50 nL of the compound dilution series was then added to the corresponding wells of a 384-well assay plate. […] Finally, […] of 5× PTPN2 enzyme stock was added to each well of the assay plate for a final enzyme concentration of 150 pM. Reaction progress curves were collected by sampling fluorescence intensity at the excitation wavelength 360 nm (λex360) and emission wavelength 480 nm (λem480) every 71 seconds for one hour using a Synergy H4 plate reader (BioTek Instruments/Agilent Technologies, Winooski, VT) at room temperature.
Target sequence in this assay (P17706 whole entry): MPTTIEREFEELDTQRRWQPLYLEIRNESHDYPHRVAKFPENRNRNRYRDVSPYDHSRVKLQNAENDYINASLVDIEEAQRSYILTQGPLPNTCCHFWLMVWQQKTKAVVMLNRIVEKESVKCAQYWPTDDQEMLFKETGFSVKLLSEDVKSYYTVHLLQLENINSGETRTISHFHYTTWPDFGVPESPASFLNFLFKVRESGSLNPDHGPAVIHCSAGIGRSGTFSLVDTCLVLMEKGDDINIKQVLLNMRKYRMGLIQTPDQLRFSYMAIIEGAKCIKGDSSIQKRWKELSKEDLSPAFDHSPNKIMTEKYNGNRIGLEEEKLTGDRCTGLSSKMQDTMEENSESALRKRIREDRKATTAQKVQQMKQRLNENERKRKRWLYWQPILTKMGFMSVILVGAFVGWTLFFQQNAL

Experiment [2] deals with T1, PTPN2. In words: Phosphatase activity assay using DiFMUP as substrate. Format: biochemical. The conditions noted are these: PTPN2 0.15 nM, 10 mM DTT. The procedure: The PTPN2 biochemical assay was performed as follows, a 5× stock solution of human PTPN2 (SRP5075, MilliporeSigma, Burlington, MA) and a 1.25× stock solution of DiFMUP (D6567, ThermoFisher Scientific, Waltham, MA), were prepared in 1× reaction buffer consisting of 50 mM HEPES, pH 7.4, 1 mM EDTA, 150 mM NaCl, 0.2 mg/mL BSA, 100 U/mL catalase and 10 mM DTT. […] of the DiFMUP substrate solution, for a final concentration of […] DiFMUP substrate, was added to a Corning 3574 384-well, white, non-binding surface microtiter plate containing […] of serially diluted test compounds prepared in DMSO. The reactions were started with the addition of […] of the enzyme solution, for a final PTPN2 concentration of 0.15 nM, and monitored every 105 seconds for 60 minutes at λEX 360/λEM 460 in a BioTek Synergy HTX plate reader (Agilent Technologies, Santa Clara, CA) at room temperature. The initial linear portions of the progress curves were fit according to a linear equation to yield the slopes and converted to % inhibition based on a value of 100% activity for the no inhibitor treated control. IC50 values of each compound were obtained by fitting the % inhibition-compound concentration curves using Dotmatics software (Dotmatics, Bishops Stortford, Hertfordshire, England),
Target sequence in this assay (P17706 other isoform, or with tags, fused parts or gaps isoform P17706-2): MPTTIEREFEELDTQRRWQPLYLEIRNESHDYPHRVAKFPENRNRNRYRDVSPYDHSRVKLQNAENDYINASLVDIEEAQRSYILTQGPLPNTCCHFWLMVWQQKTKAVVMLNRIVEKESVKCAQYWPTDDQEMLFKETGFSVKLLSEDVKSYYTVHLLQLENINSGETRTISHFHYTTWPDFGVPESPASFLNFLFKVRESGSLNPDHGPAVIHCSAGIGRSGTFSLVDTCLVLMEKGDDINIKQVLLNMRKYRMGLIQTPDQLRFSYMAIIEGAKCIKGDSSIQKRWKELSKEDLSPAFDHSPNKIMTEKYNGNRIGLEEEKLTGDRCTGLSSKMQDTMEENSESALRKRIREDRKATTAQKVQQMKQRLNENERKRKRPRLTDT

Experiment [3] has as its system phosphorylated STAT1 in B16-F10 cells. In words: Phospho-STAT1 (Tyr701) HTRF assay in B16-F10 cells with IFN-gamma. Type of experiment: cell-based. The conditions noted are these: mouse IFN-gamma 100 ng/mL, 1 hour, read-out: pSTAT1 HTRF B16F10 EC50. The procedure: B16-F10 cells (ATCC, Manassas, VA, #CRL-6475) were cultured in DMEM growth medium (ThermoFisher Scientific, Waltham, MA, #11995-040) supplemented with 10% heat-inactivated FBS (ThermoFisher Scientific, #16140-071) and 1% pen/strep (ThermoFisher Scientific, #15140-122). The cells were seeded into a white opaque 384-well tissue culture treated microplate (PerkinElmer, Waltham, MA, #6007688) at a density of 10,000 cells/well in 20 uL total volume and incubated overnight at 37 C and 5% CO2. 30 nL of compounds dissolved in DMSO were then transferred from a source plate into target wells with the Echo650 acoustic liquid handler (Beckman Coulter, Indianapolis, IN). Negative control wells received 30 nL of DMSO only (0.15% final concentration). Plates were returned to the incubator for 1 hour and then cells were treated with either 5 uL of growth medium or 5 uL of growth medium containing 500 ng/mL of recombinant mouse IFN-gamma protein (R&D Systems, Minneapolis, MN, #485-MI/CF, 100 ng/mL final concentration) using the Assist automated pipetting platform (INTEGRA Biosciences, Hudson, NH). Plates were incubated at 37 C for 1 hour and assayed for phosphorylated STAT1 protein levels with the phospho-STAT1 (Tyr701) HTRF kit (Cisbio, Bedford, MA, #63ADK026PEH) according to the manufacturer's instructions.

In a further experiment the test system is B16-F10 cells. In words: Cell proliferation assay (CellTiter-Glo) in B16-F10 cells with IFN-gamma. Type of experiment: cell-based. The conditions noted are these: 120 h, mouse IFN-gamma 10 ng/mL, read-out: PTPN2 Prolif 5d B16F10 EC50.

Molecules are shown by their SMILES.

For `Cc1cnc(NCc2cc(O)c(N3CC(=O)NS3(=O)=O)c(F)c2)c(C)c1` [EXAMPLE 24, 5-[4-[[(3,5-dimethyl-2-pyridyl)amino]methyl]-2-fluoro-6-hydroxy-phenyl]-1,1-dioxo-1,2,5-thiadiazolidin-3-one], the values for the concentration for half-maximal inhibition (IC50) on PTPN2 [1] and on PTPN2 [2] were 100 nM and 80 nM, respectively. In addition, the figures for the EC50 (in experiment [3]; in the experiment with B16-F10 cells) were 5400 nM and 4560 nM, respectively.

On to `O=C1CN(c2c(O)cc(CNc3ccc(OCc4ccccc4)cn3)cc2F)S(=O)(=O)N1` [EXAMPLE 47, 5-[4-[[(5-benzyloxy-2-pyridyl)amino]methyl]-2-fluoro-6-hydroxy-phenyl]-1,1-dioxo-1,2,5-thiadiazolidin-3-one], for which the results for the IC50 on PTPN2 [1] and on PTPN2 [2] were 40 nM and 1460 nM, respectively. Also, the EC50 in experiment [3] was 6360 nM; in the experiment on B16-F10 cells it was 13300 nM.

In the case of `COc1cnc(NCc2cc(O)c(N3CC(=O)NS3(=O)=O)c(F)c2)c(OC)c1` [EXAMPLE 30, 5-[4-[[(3,5-dimethoxy-2-pyridyl)amino]methyl]-2-fluoro-6-hydroxy-phenyl]-1,1-dioxo-1,2,5-thiadiazolidin-3-one], the IC50 was 20 nM on PTPN2 [1] and 140 nM at PTPN2 [2]. Moreover, the concentration giving a half-maximal response (EC50) was 1780 nM in experiment [3] and 1720 nM in the experiment with B16-F10 cells.

Consider `Cc1cccc(NCc2cc(O)c(N3CC(=O)NS3(=O)=O)c(F)c2)n1` [EXAMPLE 17, 5-[2-fluoro-6-hydroxy-4-[[(6-methyl-2-pyridyl)amino]methyl]phenyl]-1,1-dioxo-1,2,5-thiadiazolidin-3-one], for which the half-inhibitory concentration (IC50) stood at 1 nM on PTPN2 [1] and 4 nM at PTPN2 [2]. For the same compound, the values for the EC50 (in experiment [3]; with B16-F10 cells) were 80 nM and 160 nM, respectively.

Take `Cc1cc(NCc2cc(O)c(N3CC(=O)NS3(=O)=O)c(F)c2)ncc1C#N` [EXAMPLE 32, 6-[[3-fluoro-5-hydroxy-4-(1,1,4-trioxo-1,2,5-thiadiazolidin-2-yl)phenyl]methylamino]-4-methyl-pyridine-3-carbonitrile]: the IC50 is 30 nM at PTPN2 [1] and 50 nM at PTPN2 [2]. The EC50 in experiment [3] is 2340 nM; in the experiment with B16-F10 cells it was 4550 nM.

`N#Cc1ccnc(NCc2cc(O)c(N3CC(=O)NS3(=O)=O)c(F)c2)c1` [EXAMPLE 11, 2-[[3-fluoro-5-hydroxy-4-(1,1,4-trioxo-1,2,5-thiadiazolidin-2-yl)phenyl]methylamino]pyridine-4-carbonitrile]: the IC50 came to 40 nM on PTPN2 [1] and 100 nM on PTPN2 [2]. The EC50 was found to be 1990 nM in experiment [3] and 3130 nM in the experiment on B16-F10 cells.

Turning to `Cc1cccnc1NCc1cc(O)c(N2CC(=O)NS2(=O)=O)c(F)c1` [EXAMPLE 15, 5-[2-fluoro-6-hydroxy-4-[[(3-methyl-2-pyridyl)amino]methyl]phenyl]-1,1-dioxo-1,2,5-thiadiazolidin-3-one], the results for the IC50 on PTPN2 [1] and at PTPN2 [2] were 110 nM and 460 nM, respectively. Further, the figures for the EC50 (in experiment [3]; in the experiment with B16-F10 cells) were 5020 nM and 6480 nM, respectively.

For `Cc1ccc(C)c(NCc2cc(O)c(N3CC(=O)NS3(=O)=O)c(F)c2)n1` [EXAMPLE 20, 5-[4-[[(3,6-dimethyl-2-pyridyl)amino]methyl]-2-fluoro-6-hydroxy-phenyl]-1,1-dioxo-1,2,5-thiadiazolidin-3-one], the IC50 on PTPN2 [1] worked out at 80 nM; at PTPN2 [2], 190 nM. Also, the EC50 in experiment [3] was determined as 3600 nM; with B16-F10 cells, 3950 nM.

As to `Cc1cc(NCc2cc(O)c(N3CC(=O)NS3(=O)=O)c(F)c2)ncc1F` [EXAMPLE 31, 5-[2-fluoro-4-[[(5-fluoro-4-methyl-2-pyridyl)amino]methyl]-6-hydroxy-phenyl]-1,1-dioxo-1,2,5-thiadiazolidin-3-one], the IC50 on PTPN2 [1] was 20 nM; at PTPN2 [2] it was 50 nM. In addition, the EC50 in experiment [3] came out at 1190 nM; in the experiment on B16-F10 cells it was 1530 nM.

As to `O=C1CN(c2c(O)cc(CNc3ccc(-c4ccccc4)cn3)cc2F)S(=O)(=O)N1` [EXAMPLE 8, 5-[2-fluoro-6-hydroxy-4-[[(5-phenyl-2-pyridyl)amino]methyl]phenyl]-1,1-dioxo-1,2,5-thiadiazolidin-3-one], the IC50 at PTPN2 [1] was determined as 50 nM; on PTPN2 [2], 950 nM. The EC50 in experiment [3] turned out to be 3930 nM; in the experiment with B16-F10 cells, 6250 nM.

For the compound `O=C1CN(c2c(O)cc(CNc3cc(C(F)(F)F)ccn3)cc2F)S(=O)(=O)N1` [EXAMPLE 2, 5-[2-fluoro-6-hydroxy-4-[[[4-(trifluoromethyl)-2-pyridyl]amino]methyl]phenyl]-1,1-dioxo-1,2,5-thiadiazolidin-3-one], the IC50 at PTPN2 [1] amounted to 80 nM; on PTPN2 [2] it was 350 nM. Moreover, the EC50 in experiment [3] was 2430 nM; in the experiment with B16-F10 cells, 2670 nM.

`O=C1CN(c2c(O)cc(CNc3cc(OC4CC4)ccn3)cc2F)S(=O)(=O)N1` [EXAMPLE 6, 5-[4-[[[4-(cyclopropoxy)-2-pyridyl]amino]methyl]-2-fluoro-6-hydroxy-phenyl]-1,1-dioxo-1,2,5-thiadiazolidin-3-one]: the IC50 was found to be 3 nM at PTPN2 [1] and 10 nM at PTPN2 [2]. Moreover, the EC50 was determined as 140 nM in experiment [3] and 170 nM in the experiment on B16-F10 cells.

In the case of `CC(C)c1ccc(NCc2cc(O)c(N3CC(=O)NS3(=O)=O)c(F)c2)nc1` [EXAMPLE 45, 5-[2-fluoro-6-hydroxy-4-[[(5-isopropyl-2-pyridyl)amino]methyl]phenyl]-1,1-dioxo-1,2,5-thiadiazolidin-3-one], the figures for the IC50 on PTPN2 [1] and on PTPN2 [2] were 7 nM and 60 nM, respectively. The values for the EC50 (in experiment [3]; in the experiment on B16-F10 cells) were 1490 nM and 1770 nM, respectively.

In the case of `CCc1ccnc(NCc2cc(O)c(N3CC(=O)NS3(=O)=O)c(F)c2)c1` [EXAMPLE 13, 5-[4-[[(4-ethyl-2-pyridyl)amino]methyl]-2-fluoro-6-hydroxy-phenyl]-1,1-dioxo-1,2,5-thiadiazolidin-3-one], the IC50 is 2 nM on PTPN2 [1] and 6 nM at PTPN2 [2]. The EC50 in experiment [3] is 260 nM; with B16-F10 cells it was 230 nM.

For the compound `COc1ccc(C)nc1NCc1cc(O)c(N2CC(=O)NS2(=O)=O)c(F)c1` [EXAMPLE 22, 5-[2-fluoro-6-hydroxy-4-[[(3-methoxy-6-methyl-2-pyridyl)amino]methyl]phenyl]-1,1-dioxo-1,2,5-thiadiazolidin-3-one], the IC50 was 80 nM at PTPN2 [1] and 170 nM at PTPN2 [2]. Moreover, the EC50 in experiment [3] turned out to be 2970 nM; with B16-F10 cells it was 2470 nM.

As for `Cc1ccc(NCc2cc(O)c(N3CC(=O)NS3(=O)=O)c(F)c2)nc1` [EXAMPLE 14, 5-[2-fluoro-6-hydroxy-4-[[(5-methyl-2-pyridyl)amino]methyl]phenyl]-1,1-dioxo-1,2,5-thiadiazolidin-3-one], the IC50 at PTPN2 [1] and on PTPN2 [2] was 10 nM in each case. Further, the EC50 in experiment [3] was found to be 750 nM; in the experiment with B16-F10 cells it was 610 nM.

In the case of `COc1cccnc1NCc1cc(O)c(N2CC(=O)NS2(=O)=O)c(F)c1` [EXAMPLE 34, 5-[2-fluoro-6-hydroxy-4-[[(3-methoxy-2-pyridyl)amino]methyl]phenyl]-1,1-dioxo-1,2,5-thiadiazolidin-3-one], the IC50 is above 10000 nM at PTPN2 [1] and 10000 nM on PTPN2 [2]. Besides, the 50% effective concentration (EC50) (in experiment [3]; with B16-F10 cells) was above 15000 nM each time.

Take `COc1ccc(NCc2cc(O)c(N3CC(=O)NS3(=O)=O)c(F)c2)nc1` [EXAMPLE 38, 5-[2-fluoro-6-hydroxy-4-[[(5-methoxy-2-pyridyl)amino]methyl]phenyl]-1,1-dioxo-1,2,5-thiadiazolidin-3-one]: the concentration for half-maximal inhibition (IC50) on PTPN2 [1] was 10 nM; at PTPN2 [2] it was 60 nM. Also, the half-maximal effective concentration (EC50) was found to be 540 nM in experiment [3] and 850 nM with B16-F10 cells.

These data come from patent publication US20240180886A1, “INHIBITORS OF PROTEIN TYROSINE PHOSPHATASE, COMPOSITIONS, AND METHODS OF USE” (BRISTOL-MYERS SQUIBB COMPANY, priority 2022, published 2024).
